A short description of series [1]: log p, octanol/water partition coefficient determined by reversed-phase HPLC. It counts as physicochemical. Particulars: for chromatographic logP: pH not stated; for chromatographic logD: pH 2. An excerpt: * log p = Logarithm of the partition coefficient p of the substance
between the solvents octanol and water, determined experimentally by mean

Series [2] relates to mustard beetle larvae (Phaedon cochleariae). Nature of the series: Phaedon larvae test. The note with it: 168 h, after 7 days, dipped cabbage leaves, read-out: destruction. It counts as in vivo. Here is the method:
(§1) Solvent: 7 parts by weight of dimethylformamide
(§2) Emulsifier: 1 part by weight of alkylaryl polyglycol ether
(§3) To produce a suitable preparation of active compound, 1 part by weight of active compound is mixed with the stated amount of solvent and the stated amount of emulsifier, and the concentrate is diluted with water to the desired concentration.
After the desired period of time, the destruction in % is determined. 100% means that all the beetle larvae have been killed; 0% means that none of the beetle larvae have been killed.

For series [3], the system named is caterpillars of the diamond-back moth (Plutella maculipennis). Nature of the series: Plutella test. The note with it: 168 h, after 7 days, dipped cabbage leaves, read-out: destruction. The class given is in vivo. The protocol:
as §1, §2, §3
Cabbage leaves (Brassica oleracea) are treated by being dipped into the preparation of active compound of the desired concentration and are infested with caterpillars of the diamond-back moth (Plutella maculipennis) while the leaves are still moist.
(§4) After the desired period of time, the destruction in % is determined. 100% means that all the caterpillars have been killed; 0% means that none of the caterpillars have been killed.

The test system of a further series is Meloidogyne incognita. Nature of the series: Critical concentration test/nematodes. It counts as in vivo. The note with it: 20 ppm in soil; lettuce root galls after three weeks. Here is the method: Critical concentration test/nematodes
Test nematode: Meloidogyne incognita
Solvent: 3 parts by weight of acetone
as §2
To produce a suitable preparation of active compound, 1 part by weight of active compound is mixed with the stated amount of solvent, the stated amount of emulsifier is added and the concentrate is diluted with water to the desired concentration.
The preparation of active compound is intimately mixed with soil which is severely infested with the test nematodes. The concentration of the active compound in the preparation is of practically no importance, only the amount of active compound per unit volume of soil, which is given in ppm (=mg/l), being decisive. The treated soil is transferred into pots, lettuce is sown in, and the pots are kept at a greenhouse temperature of 25° C.
After three weeks, the lettuce roots are checked for infestation with nematodes (root galls) and the degree of efficacy of the active compound in % is determined. The degree of efficacy is 100% when infestation is avoided completely and 0% when the infestation level is just as high as in the control plants in untreated, but equally infested, soil.

For another series, the system named is Lucilia cuprina larvae. Put plainly: Blowfly larvae test. It counts as in vivo. The note with it: after 24 hours, horse meat, read-out: destruction. The protocol: Test animals: Lucilia cuprina larvae
Solvent: 35 parts by weight of ethylene glycol monomethyl ether
Emulsifier: 35 parts by weight of nonylphenol polyglycol ether
For the purpose of producing a suitable formulation, 3 parts by weight of the active compound are mixed with 7 parts of the abovementioned mixture of solvent and emulsifier, and the emulsion concentrate thus obtained is diluted with water to the particular concentration desired.
About 20 Lucilia cuprina larvae are introduced into a test tube which contains approx. 1 cm^3 of horse meat and 0.5 ml of the preparation of active compound to be tested. After 24 hours, the efficacy of the preparation of active compound is determined. 100% means that all blowfly larvae have been killed; 0% means that none of the blowfly larvae have been killed.

Series [4] concerns tobacco budworm (Heliothis virescens). Put plainly: whole plant or invertebrate. The class given is in vivo. The note with it: 168 h, read-out: destruction. Here is the method:
as §1, §2, §3
Soya bean shoots (Glycine max) are treated by being dipped into the preparation of active compound of the desired concentration and are infested with tobacco budworm (Heliothis virescens) while the leaves are still moist.
as §4

Series [5] deals with larvae of the green rice leafhopper (Nephotettix cincticeps). Put plainly: Nephotettix test. It counts as in vivo. Particulars: 144 h, read-out: destruction. The protocol:
as §1, §2, §3
Rice seedlings (Oryzae sativa) are treated by being dipped into the preparation of active compound of the desired concentration and are infested with larvae of the green rice leafhopper (Nephotettix cincticeps) while the seedlings are still moist.
After the desired period of time, the destruction in % is determined. 100% means that all the leafhoppers have been killed; 0% means that none of the leafhoppers have been killed.

Molecules are shown by their SMILES.

Results on 16 molecules are retold here after patent US5945451A, “Fluorobutenyl(thio)ethers used as pesticides” (Bayer Aktiengesellschaft, priority 1994, dated 1999).

The term chromatographic logP denotes lipophilicity estimated from chromatographic retention. High values mean a more lipophilic compound, low ones a more hydrophilic compound. Broadly, the chromatographic logD is lipophilicity estimated from chromatographic retention.

`COC(=O)CSCCC(F)=C(F)F` [Example I-20] had a chromatographic logP in series [1] of 2.43. As to `O=C(CSCCC(F)=C(F)F)NCc1ccccc1` [Example I-23], the chromatographic logD in series [1] came out at 2.56. Turning to `CC(C)N(C(=O)CSCCC(F)=C(F)F)c1ccc(Cl)c(Cl)c1` [Example I-13], the mortality at 0.1 % in series [2] and in series [3] was 100% in each case.

In turn, `O=C(O)CNC(=O)CSCCC(F)=C(F)F` [Example I-15] came in with a degree of efficacy in the series on Meloidogyne incognita of 100%. `O=C(Nc1ccc(Cl)c(Cl)c1)C(SCCC(F)=C(F)F)c1ccccc1` (stereo not drawn) [Example I-46] returned a chromatographic logD in series [1] of 4.59. `O=C(CSCCC(F)=C(F)F)OCc1ccccc1` [Example I-2]: in the series on Meloidogyne incognita, the degree of efficacy is 100%.

`CC(NC(=O)CSCCC(F)=C(F)F)c1ccccc1` (stereo not drawn) [Example I-18] gave a chromatographic logP in series [1] of 2.77. On the same count and under the same terms, the result for `CC(C)COC(=O)CSCCC(F)=C(F)F` [Example I-21] reads 3.74; that for `O=C(CSCCC(F)=C(F)F)NCc1ccc(Cl)cc1` [Example I-19], 2.94. In the case of `O=C(CSCCC(F)=C(F)F)NC(Cc1ccccc1)C(=O)O` (stereo not drawn) [Example I-17], in the series on Meloidogyne incognita, the degree of efficacy was 100%. Consider `CN(C)C(=O)CSCCC(F)=C(F)F` [Example I-9], for which the mortality at 1000 ppm in the series with Lucilia cuprina larvae was found to be 100%. On to `CC(NC(=O)CSCCC(F)=C(F)F)C(=O)O` (stereo not drawn) [Example I-16], for which the degree of efficacy in the series with Meloidogyne incognita was determined as 100%. Turning to `O=C(CSCCC(F)=C(F)F)Nc1ccc(F)cc1` [Example I-10], the mortality at 0.1 % in series [4] is 85%.

`O=C(CSCCC(F)=C(F)F)Nc1ccccn1` [Example I-11] showed a degree of efficacy in the series with Meloidogyne incognita of 100%.

`NC(=O)CSCCC(F)=C(F)F` [Example I-22] yielded a chromatographic logD in series [1] of 1.22.

For the molecule `CC(C)N(C(=O)CSCCC(F)=C(F)F)c1cccc(F)c1` [Example I-14], the mortality at 0.1 % in series [5] and in series [3] was 100% each time.
